Measured values reported in patent US12350253B2, “Use of cannabinoids in the treatment of dyskinesia associated with parkinson's disease” (Jazz Pharmaceuticals Research UK Limited, priority 2019, dated 2025).
“Also recorded” adds a separate entry of the source.

Experiments:
[1] = tested on: 6-hydroxydopamine rat model of Parkinson's disease; conditions: oral coadministration of L-DOPA and rimonabant; cited from earlier work
nigral neurons = conditions: various experimental models of PD; cited from earlier work
[2] = tested on: L-DOPA-induced dyskinesia in Pitx3−/− mice; assay: L-DOPA-induced dyskinesia (AIMs), THCV co-administered daily with L-DOPA; type: in vivo; conditions: for duration of AIMs (three/four-paw dyskinetic movements): vs L-DOPA alone
Method: Pitx3^−/− aphakia mice and their wildtype littermates, were genotyped using PCR amplification analysis of tail-tip DNA extracts. Mice were housed under a 12 h dark/light cycle with free access to food and water. They were used for experimental purposes at the age of 4-6 month-old (24-30 g of weight).
(§1) In a first experiment, animals were treated with an i.p. injection of 10 mg/kg of benserazide hydrochloride followed 20 minutes later by a second i.p. injection of 10 mg/kg of L-DOPA methyl ester. Separate groups of animals received equivalent injections with vehicle (saline) used as controls. Both L-DOPA- and vehicle-treated mice received, 10 minutes after the second injection, a third i.p. injection of THCV (2 mg/kg) or vehicle (Tween 80-saline). The same treatment schedule was repeated daily during approximately two weeks.
(§2) AIMs were assessed 30 and 60 min after L-DOPA administration. Dyskinesia was scored off-line by a blind rater based on video footage. Ratings were assessed for four minutes at each time point.
(§3) Total dyskinesia was rated by adding the duration in seconds of all three-paw and four-paw dyskinetic bouts. Additionally, on odd days, individual mice were placed in actimeters and motor activity was assessed following drug administration.
On Day 14, we evaluated AIMs every 20 min for 160 min after administering L-DOPA to determine the extinction of this response.

Pitx3−/− mice [3] = assay: Locomotor activity (multicage activity meter); type: in vivo
Method: as §1
Horizontal and vertical activities were recorded, using a multicage activity meter system consisting of a set of 8 individual cages measuring 20×20×28 cm. Animals were introduced in the actimeter 60 minutes after L-DOPA injection and were assessed for 30 minutes. Horizontal movement was detected by 2 arrays of 16 infrared beams, whereas a third array positioned 4 cm above the floor detected vertical movement.
The software is capable of differentiating between repetitive interruptions of the same photobeam and interruptions of adjacent photobeams. The latter measure was used as an index of ambulatory activity.

parkinsonian rats = conditions: acute treatment; cited from earlier work
[4] = tested on: established L-DOPA-induced dyskinesia in Pitx3−/− mice; assay: Established L-DOPA-induced dyskinesia (AIMs), THCV started after about two weeks of L-DOPA; type: in vivo; conditions: 30 min after L-DOPA; for duration of L-DOPA-induced three/four-paw dyskinesia, established dyskinesia: THCV 2 mg/kg from day 14 after 13 days of L-DOPA, vs L-DOPA alone
Method: In a second experiment, benserazide and L-DOPA (and their corresponding vehicles) were administered to mice following the same schedule than in the previous experiment, but THCV, again at the dose of 2 mg/kg, was given for the first time after approximately two weeks of daily benserazide/L-DOPA treatment, with the administration of the three compounds (and vehicles) extending for at least 3 days.
as §2, §3

[5] = tested on: phospho(Ser10)-acetyl (Lys14)-Hystone 3 (pAcH3); assay: pAcH3 immunostaining in striatum; type: in vivo, mice; conditions: chronic THCV with L-DOPA vs chronic L-DOPA
Method: (§4) Following behavioral analysis, animals were euthanized 1 hour after the last injection of L-DOPA. The brains were post-fixed for 24 h and were then transferred to a solution of 0.1 M phosphate buffer containing 0.02% sodium azide for storage at 4° C. To obtain regular blocks, brains were further immersed in 3% agarose and cut in coronal sections (30 μm thick) using a vibratome.
(§5) Immunostaining was carried out in free-floating sections using a standard avidin-biotin immunocytochemical protocol with the following rabbit antisera: (i) FosB (1:7500), and (ii) anti phospho(Ser10)-acetyl (Lys14)-Hystone 3 (pAcH3; 1:500).
(§6) After incubation with primary antibody (overnight), the sections were washed and incubated with biotinylated secondary anti-rabbit antibody (1:500) for 1 h at room temperature. After washing, the sections were incubated with streptavidin for 1 h and antibody staining was developed using DAB.
(§7) Regarding the quantification of FosB and pAcH3 immunoreactivity, it was carried out using an image analysis system.
For all sides, immunostaining intensity and number of immunolabeled nuclei were determined using five serial rostrocaudal sections per animal and three counting frames (dorsal, dorsolateral and lateral) per section (0.091 mm2 each frame). Images were digitized with Leica microscope under 40× lens. Before counting, images were thresholded at a standardized grey-scale level. […]

Pitx3−/− mice [6] = assay: Rotarod test (motor coordination); type: in vivo; conditions: THCV co-administered with L-DOPA; after 12 days of daily treatment; vs L-DOPA
Method: as §1
Motor coordination was tested using a rotarod. The rotarod was set at a constant speed (10 revolutions per minute) and latency to fall from the rod was assessed. Cut off time was 180 seconds. Before testing, mice were previously habituated in one training session, as described previously.

FosB = FosB immunostaining in striatum; type: in vivo, mice; conditions: chronic THCV with L-DOPA vs chronic L-DOPA
Method: as §4, §5, §6
For immunostaining quantification in the completely denervated area, we used the Neurolucida software. […]
as §7
For all sides, immunostaining intensity and number of immunolabeled nuclei were determined using five serial rostrocaudal sections per animal and three counting frames (dorsal, dorsolateral and lateral) per section (0.091 mm2 each frame). […]

[7] = THCV co-administered with L-DOPA, 60 min after L-DOPA, vs L-DOPA

Cc1c(C(=O)NN2CCCCC2)nn(-c2ccc(Cl)cc2Cl)c1-c1ccc(Cl)cc1 [rimonabant]
abnormal involuntary movements and dystonia [1]: decreased abnormal involuntary movements and dystonia

C=C(C)[C@@H]1CCC(C)=C[C@H]1c1c(O)cc(CCCCC)cc1O [CBD, cannabidiol]
protection of nigral neurons from death caused by different insults (nigral neurons): able to protect nigral neurons from death

CCCCCCC(C)(C)c1ccc([C@@H]2C[C@H](O)CC[C@H]2CCCO)c(O)c1 [CP55,940]
protection of nigral neurons from death caused by different insults (nigral neurons): able to protect nigral neurons from death

CCCCC/C=C\C/C=C\C/C=C\C/C=C\CCCC(=O)Nc1ccc(O)cc1 [AM404]
protection of nigral neurons from death caused by different insults (nigral neurons): able to protect nigral neurons from death

CCCc1cc(O)c2c(c1)OC(C)(C)[C@@H]1CCC(C)=C[C@@H]21 [THCV, tetrahydrocannabivarin]
duration of AIMs (three/four-paw dyskinetic movements) ([2]; 30 min post-L-DOPA, THCV 2 mg/kg i.p. daily with L-DOPA 10 mg/kg i.p., except days 1 and 3): attenuates dyskinesia; also recorded: reduced the duration of AIMs
duration of AIMs (three/four-paw dyskinetic movements) ([2]; 60 min post-L-DOPA, THCV 2 mg/kg i.p. daily with L-DOPA): to a lesser extent; also recorded: significant differences only at days 7 and 13 of treatment
dyskinetic movements with THCV alone ([2]; THCV 2 mg/kg i.p. alone, no L-DOPA): showed no dyskinetic movements
dyskinesias score, acute co-treatment ([2]; day 1 of treatment, 30 min and 60 min, THCV 2 mg/kg with L-DOPA): decreases, but not significantly
time post-treatment up to which difference from L-DOPA alone remained (kinetic profile of AIMs) ([2]; last day of treatment, AIMs every 20 min over 160 min): up to 80 minutes
horizontal activity (Pitx3−/− mice [3]; THCV alone vs vehicle): no effect on the horizontal activity
vertical activity (Pitx3−/− mice [3]; THCV alone vs vehicle): did elevate vertical activity by itself
horizontal activity (Pitx3−/− mice [3]; [7]): attenuating the elevated horizontal and vertical activities
vertical activity (Pitx3−/− mice [3]; [7]): attenuating the elevated horizontal and vertical activities
motor inhibition (parkinsonian rats): efficacious in reducing motor inhibition
potency in reducing motor inhibition relative to rimonabant (parkinsonian rats): equivalent to rimonabant
persistence of the reduction of established dyskinesia ([4]; THCV 2 mg/kg): 3 days
duration of L-DOPA-induced three/four-paw dyskinesia, established dyskinesia [4]: significantly reduced dyskinesia
duration of L-DOPA-induced three/four-paw dyskinesia, established dyskinesia ([4]; listed as Δ9-THCV): active in reducing the duration of L-DOPA-induced three/four-paw dyskinesia
immunostaining intensity of pAcH3-positive nuclei in striatum [5]: decreases the intensity of nuclei; also recorded: beneficial effects
number of pAcH3-positive nuclei in striatum [5]: only evident in the intensity of immunostained-nuclei
rotarod performance (latency to fall) (Pitx3−/− mice [6]): improved motor coordination in rotarod; also recorded: improved the deteriorated rotarod performance
immunostaining intensity of FosB-positive cells in striatum (FosB): attenuates the immunostaining-intensity of FosB positive nuclei; also recorded: reduction affected both the number and the immunostaining intensity
number of FosB-positive cells in striatum (FosB): attenuates the increased expression of FosB-positive cells; also recorded: reduction affected both the number and the immunostaining intensity

CCCCCc1cc(O)c2c(c1)OC(C)(C)[C@@H]1CCC(C)=C[C@@H]21 [THC, tetrahydrocannabinol]
protection of nigral neurons from death caused by different insults (nigral neurons): able to protect nigral neurons from death
